Reference: the supplement of paper PMC6045584
± gives the standard deviation of the averaged measurements.

Tests used:
LENVATINIB = compound: COc1cc2nccc(Oc3ccc(NC(=O)NC4CC4)c(Cl)c3)c2cc1C(N)=O [LENVATINIB]; test: surviving fraction relative to DMSO-only wells; higher = less growth inhibition; conditions: exposure time: 5 days
How it was run: (§1)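 Five days of continuous inhibitor exposure, at 0.5, 1, 5, 10, 50, 100, 500 and 1000 nM, followed a 24-hour period after log-phase tumour cell lines were seeded at 250–500 cells per well in 384-well plates. Surviving fraction was derived from CellTiter-Glo luminescence relative to the median of DMSO-only wells. Plates were read after 10 minutes at room temperature, and lines screened three times were kept only if replicate Pearson r >0.7 and median Z' >0.3.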

[1] = compound: C[C@@H]1CN(CC(=O)Nc2ccc3c(c2)Cc2cccc(-c4cc(=O)cc(N5CCOCC5)o4)c2S3)C[C@H](C)O1; test: as above; conditions: exposure time: 5 days
How it was run: as §1

Row | Test System | surviving fraction (LENVATINIB; 0.5 nM) | surviving fraction (LENVATINIB; 1 nM) | surviving fraction (LENVATINIB; 5 nM) | surviving fraction (LENVATINIB; 10 nM) | surviving fraction (LENVATINIB; 50 nM) | surviving fraction (LENVATINIB; 100 nM) | surviving fraction (LENVATINIB; 500 nM) | surviving fraction (LENVATINIB; 1000 nM) | surviving fraction ([1]; 0.5 nM) | surviving fraction ([1]; 1 nM) | surviving fraction ([1]; 5 nM) | surviving fraction ([1]; 10 nM) | surviving fraction ([1]; 50 nM) | surviving fraction ([1]; 100 nM) | surviving fraction ([1]; 500 nM) | surviving fraction ([1]; 1000 nM)
1 | SCC47 HEADNECK | 1.11 ± 0.068 | 1.02 ± 0.012 | 1.14 ± 0.021 | 1.14 ± 0.1 | 1.06 ± 0.024 | 1.11 ± 0.15 | 1.12 ± 0.081 | 1.08 ± 0.069 | 1.06 ± 0.1 | 1.04 ± 0.036 | 1.1 ± 0.057 | 1.06 ± 0.075 | 1.04 ± 0.042 | 1.09 ± 0.04 | 1.05 ± 0.064 | 1.12 ± 0.093
2 | SCC90 HEADNECK | 1.12 ± 0.056 | 1.12 ± 0.071 | 1.15 ± 0.13 | 1.22 ± 0.093 | 1.18 ± 0.098 | 1.17 ± 0.048 | 1.21 ± 0.085 | 1.3 ± 0.074 | 1.01 ± 0.16 | 1.03 ± 0.11 | 1.07 ± 0.027 | 1.12 ± 0.033 | 1.02 ± 0.042 | 0.952 ± 0.077 | 0.963 ± 0.03 | 0.971 ± 0.12
3 | SG27 HEADNECK | 1.15 ± 0.18 | 1.11 ± 0.028 | 1.12 ± 0.093 | 1.1 ± 0.052 | 1.04 ± 0.21 | 0.985 ± 0.13 | 0.928 ± 0.025 | 0.957 ± 0.055 | 1.02 ± 0.1 | 0.976 ± 0.047 | 1.13 ± 0.079 | 1.02 ± 0.15 | 0.95 ± 0.056 | 0.988 ± 0.11 | 1.01 ± 0.061 | 1.03 ± 0.1
4 | SG28 HEADNECK | 1.01 ± 0.091 | 1.06 ± 0.058 | 1.04 ± 0.011 | 1.08 ± 0.072 | 1.09 ± 0.097 | 0.966 ± 0.069 | 1.1 ± 0.069 | 1.08 ± 0.097 | 1.07 ± 0.081 | 1.11 ± 0.13 | 1.04 ± 0.093 | 0.986 ± 0.033 | 0.9 ± 0.054 | 0.915 ± 0.047 | 0.9 ± 0.1 | 0.87 ± 0.11
5 | SG31 HEADNECK | 1.04 ± 0.17 | 1.17 ± 0.15 | 0.975 ± 0.3 | 0.977 ± 0.066 | 0.985 ± 0.12 | 0.967 ± 0.059 | 1.24 ± 0.09 | 1.12 ± 0.2 | 0.946 ± 0.076 | 0.916 ± 0.1 | 1.06 ± 0.17 | 0.953 ± 0.07 | 0.971 ± 0.12 | 0.964 ± 0.09 | 1.08 ± 0.087 | 1.06 ± 0.098
6 | SG32 HEADNECK | 1.21 ± 0.15 | 1.38 ± 0.028 | 1.15 ± 0.14 | 1.13 ± 0.2 | 1.05 ± 0.15 | 1.12 ± 0.2 | 1.41 ± 0.35 | 1.15 ± 0.12 | 1.16 ± 0.16 | 1.07 ± 0.2 | 1.12 ± 0.18 | 1.62 ± 0.39 | 0.939 ± 0.091 | 1.05 ± 0.047 | 0.74 ± 0.11 | 0.681 ± 0.082
7 | SG43 HEADNECK | 0.959 ± 0.18 | 1.01 ± 0.3 | 0.772 ± 0.11 | 0.842 ± 0.098 | 0.84 ± 0.14 | 0.93 ± 0.24 | 1.13 ± 0.17 | 1.09 ± 0.11 | 0.871 ± 0.21 | 1.22 ± 0.069 | 1.03 ± 0.14 | 1.16 ± 0.14 | 1.37 ± 0.25 | 1.38 ± 0.36 | 1.31 ± 0.19 | 1.43 ± 0.061
8 | SIHA CERVIX | 1.07 ± 0.016 | 1.1 ± 0.04 | 1.12 ± 0.049 | 1.11 ± 0.085 | 1.2 ± 0.14 | 1.18 ± 0.05 | 1.04 ± 0.13 | 0.97 ± 0.035 | 1.04 ± 0.022 | 1.1 ± 0.082 | 1.09 ± 0.0035 | 1.06 ± 0.023 | 1.04 ± 0.062 | 1.08 ± 0.084 | 1.02 ± 0.11 | 0.931 ± 0.051
9 | SJSA1 BONE | 1.04 ± 0.034 | 1.02 ± 0.034 | 1.09 ± 0.087 | 1.09 ± 0.051 | 1.15 ± 0.014 | 1.07 ± 0.029 | 1.03 ± 0.022 | 0.997 ± 0.015 | 0.993 ± 0.05 | 1.04 ± 0.03 | 1.05 ± 0.029 | 1.06 ± 0.061 | 1 ± 0.017 | 1.05 ± 0.026 | 0.9383 ± 0.0074 | 0.892 ± 0.034
10 | SKBR3 BREAST | 1 ± 0.18 | 1.08 ± 0.11 | 1.04 ± 0.15 | 1.06 ± 0.099 | 1.05 ± 0.19 | 1.16 ± 0.11 | 1.1 ± 0.068 | 0.944 ± 0.17 | 1.06 ± 0.013 | 0.979 ± 0.19 | 0.937 ± 0.22 | 0.939 ± 0.088 | 0.9 ± 0.16 | 1.05 ± 0.13 | 0.886 ± 0.07 | 0.61 ± 0.033
11 | SNU475 LIVER | 1.04 ± 0.069 | 1.04 ± 0.042 | 1.02 ± 0.07 | 1.03 ± 0.03 | 0.971 ± 0.045 | 1.03 ± 0.018 | 0.995 ± 0.037 | 1 ± 0.016 | 0.97 ± 0.022 | 1.02 ± 0.034 | 1.007 ± 0.0086 | 1.02 ± 0.027 | 0.876 ± 0.026 | 0.96133 ± 0.00058 | 0.863 ± 0.04 | 0.669 ± 0.036
12 | SUM44 BREAST | 1.01 ± 0.06 | 1.03 ± 0.054 | 1.03 ± 0.048 | 1.04 ± 0.018 | 1.05 ± 0.044 | 1.07 ± 0.052 | 1.03 ± 0.029 | 1.01 ± 0.015 | 0.936 ± 0.036 | 0.936 ± 0.034 | 0.977 ± 0.028 | 0.968 ± 0.023 | 0.911 ± 0.044 | 0.915 ± 0.067 | 0.898 ± 0.083 | 0.892 ± 0.031
13 | SUM149 BREAST | 1.07 ± 0.12 | 1.04 ± 0.061 | 1.05 ± 0.025 | 1.02 ± 0.16 | 1.04 ± 0.076 | 1.01 ± 0.066 | 0.992 ± 0.06 | 0.965 ± 0.084 | 0.874 ± 0.049 | 0.885 ± 0.1 | 0.96 ± 0.089 | 0.862 ± 0.035 | 1.01 ± 0.017 | 0.917 ± 0.029 | 0.819 ± 0.11 | 0.667 ± 0.024
14 | SUM149.B1*.S BREAST | 1.11 ± 0.031 | 1.15 ± 0.018 | 1.15 ± 0.03 | 1.11 ± 0.044 | 1.19 ± 0.029 | 1.15 ± 0.031 | 1.17 ± 0.052 | 1.14 ± 0.042 | 1.07 ± 0.062 | 1.06 ± 0.064 | 1.05 ± 0.025 | 1.03 ± 0.027 | 1.07 ± 0.071 | 1.05 ± 0.016 | 1.08 ± 0.045 | 1.07 ± 0.074
15 | SUM159 BREAST | 1.16 ± 0.15 | 1.15 ± 0.11 | 1.11 ± 0.096 | 1.13 ± 0.12 | 1.08 ± 0.034 | 1.04 ± 0.088 | 1.08 ± 0.021 | 1.08 ± 0.017 | 1.08 ± 0.012 | 1.15 ± 0.11 | 1.11 ± 0.048 | 1.13 ± 0.11 | 1.11 ± 0.079 | 1.1 ± 0.023 | 1.13 ± 0.11 | 1.05 ± 0.029
16 | SYO1 SYNOVIAL | 0.942 ± 0.11 | 0.962 ± 0.025 | 0.918 ± 0.017 | 0.889 ± 0.042 | 0.768 ± 0.079 | 0.667 ± 0.042 | 0.528 ± 0.031 | 0.504 ± 0.02 | 0.997 ± 0.021 | 1 ± 0.029 | 0.987 ± 0.049 | 1.07 ± 0.019 | 0.993 ± 0.023 | 1.03 ± 0.018 | 0.894 ± 0.019 | 0.781 ± 0.011
17 | T47D BREAST | 1.09 ± 0.018 | 1.09 ± 0.018 | 1.08 ± 0.044 | 1.06 ± 0.057 | 1.1 ± 0.028 | 1.13 ± 0.046 | 1.12 ± 0.064 | 1.1 ± 0.023 | 1.02 ± 0.018 | 1.01 ± 0.022 | 1.03 ± 0.013 | 0.9914 ± 0.0016 | 1.06 ± 0.027 | 1.049 ± 0.0087 | 1.047 ± 0.0069 | 0.945 ± 0.051
18 | U2OS BONE | 1.01 ± 0.038 | 0.99 ± 0.045 | 1.04 ± 0.039 | 1.02 ± 0.027 | 1.02 ± 0.019 | 1.02 ± 0.033 | 0.891 ± 0.051 | 0.832 ± 0.027 | 1.06 ± 0.052 | 1.09 ± 0.057 | 1.08 ± 0.029 | 1.08 ± 0.025 | 1.1 ± 0.058 | 1.09 ± 0.061 | 1.03 ± 0.048 | 1.02 ± 0.05
19 | VCAP PROSTATE | 1.03 ± 0.038 | 1.04 ± 0.12 | 1.17 ± 0.15 | 1.12 ± 0.1 | 1.1 ± 0.11 | 1.17 ± 0.079 | 0.962 ± 0.097 | 0.97 ± 0.078 | 1.01 ± 0.035 | 1.08 ± 0.066 | 1.11 ± 0.14 | 1.18 ± 0.15 | 1.19 ± 0.094 | 1.14 ± 0.11 | 0.922 ± 0.057 | 0.967 ± 0.079
20 | VP229 BREAST | 1.29 ± 0.23 | 1.14 ± 0.17 | 1.21 ± 0.093 | 0.969 ± 0.044 | 1.36 ± 0.17 | 1.34 ± 0.14 | 1.47 ± 0.13 | 1.42 ± 0.081 | 1.03 ± 0.15 | 1.07 ± 0.05 | 1.09 ± 0.14 | 1.06 ± 0.07 | 0.9067 ± 0.0046 | 0.916 ± 0.14 | 1.11 ± 0.062 | 0.897 ± 0.075
21 | YAMATO SYNOVIAL | 1.18 ± 0.073 | 1.15 ± 0.05 | 1.13 ± 0.12 | 1.06 ± 0.072 | 1.1 ± 0.062 | 1.14 ± 0.13 | 0.953 ± 0.08 | 0.949 ± 0.017 | 1.41 ± 0.1 | 1.44 ± 0.13 | 1.38 ± 0.1 | 1.46 ± 0.03 | 0.925 ± 0.031 | 0.965 ± 0.046 | 0.884 ± 0.14 | 0.855 ± 0.045
22 | ZR751 BREAST | 1.04 ± 0.12 | 0.964 ± 0.15 | 0.926 ± 0.035 | 0.84 ± 0.071 | 1.06 ± 0.092 | 1.1 ± 0.088 | 0.915 ± 0.23 | 1.04 ± 0.022 | 1.01 ± 0.1 | 1.08 ± 0.19 | 1.02 ± 0.21 | 0.959 ± 0.13 | 0.951 ± 0.035 | 0.956 ± 0.076 | 1.06 ± 0.24 | 0.977 ± 0.071
